From ChEMBL document CHEMBL5715260, “Selectivity Literature for EUbOPEN Chemogenomic Library” (2024)

What was measured:
[1] = biological target: Steroidogenic factor 1 (Homo sapiens) (UniProt Q13285); experiment: Selectivity interaction (Reporter gene assay) EUB0001158a NR5A1; set-up: recommended concentration 1 uM
[2] = biological target: T1, Alpha trans-inducing protein (Human alphaherpesvirus 1) (UniProt A0A5J6DW59); experiment: Selectivity interaction (Reporter gene assay) EUB0001158a UL48; set-up: recommended concentration 1 uM
T1 sequence (A0A5J6DW59 as listed by the source): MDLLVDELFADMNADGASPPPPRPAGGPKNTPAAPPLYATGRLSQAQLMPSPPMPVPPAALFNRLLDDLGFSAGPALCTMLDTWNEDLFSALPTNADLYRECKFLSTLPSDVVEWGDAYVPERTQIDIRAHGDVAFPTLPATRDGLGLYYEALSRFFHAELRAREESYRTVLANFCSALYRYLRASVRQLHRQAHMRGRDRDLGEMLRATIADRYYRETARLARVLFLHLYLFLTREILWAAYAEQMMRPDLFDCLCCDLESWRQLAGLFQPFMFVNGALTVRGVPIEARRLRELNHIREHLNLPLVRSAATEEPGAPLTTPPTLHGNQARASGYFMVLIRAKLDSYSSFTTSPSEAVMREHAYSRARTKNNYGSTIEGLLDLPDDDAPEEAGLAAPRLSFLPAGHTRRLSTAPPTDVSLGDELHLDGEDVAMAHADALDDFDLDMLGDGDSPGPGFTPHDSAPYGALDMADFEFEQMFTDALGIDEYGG

[3] = biological target: T2, Nuclear receptor subfamily 2 group C member 1 (Homo sapiens) (UniProt P13056); experiment: Selectivity interaction (Reporter gene assay) EUB0001158a NR2C1; set-up: recommended concentration 1 uM
T2 sequence (whole entry): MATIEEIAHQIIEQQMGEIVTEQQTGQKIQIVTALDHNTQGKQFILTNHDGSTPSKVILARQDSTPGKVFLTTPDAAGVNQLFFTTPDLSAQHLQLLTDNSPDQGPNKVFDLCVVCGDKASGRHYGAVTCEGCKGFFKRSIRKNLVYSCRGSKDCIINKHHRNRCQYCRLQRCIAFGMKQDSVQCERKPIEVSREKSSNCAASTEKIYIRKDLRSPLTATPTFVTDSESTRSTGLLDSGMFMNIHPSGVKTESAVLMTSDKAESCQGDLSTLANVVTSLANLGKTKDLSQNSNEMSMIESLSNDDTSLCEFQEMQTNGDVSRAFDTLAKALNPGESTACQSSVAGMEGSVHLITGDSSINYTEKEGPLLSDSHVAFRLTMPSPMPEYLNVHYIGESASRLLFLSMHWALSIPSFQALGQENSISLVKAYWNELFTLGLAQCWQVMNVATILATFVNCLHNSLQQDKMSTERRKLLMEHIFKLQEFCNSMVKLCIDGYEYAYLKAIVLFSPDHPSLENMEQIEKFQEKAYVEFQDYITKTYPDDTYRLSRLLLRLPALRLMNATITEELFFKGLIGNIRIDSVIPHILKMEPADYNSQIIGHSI

[4] = biological target: T3, Hepatocyte nuclear factor 4-alpha (Homo sapiens) (UniProt P41235); experiment: Selectivity interaction (Reporter gene assay) EUB0001158a HNF4A; set-up: recommended concentration 1 uM
T3 sequence (whole entry): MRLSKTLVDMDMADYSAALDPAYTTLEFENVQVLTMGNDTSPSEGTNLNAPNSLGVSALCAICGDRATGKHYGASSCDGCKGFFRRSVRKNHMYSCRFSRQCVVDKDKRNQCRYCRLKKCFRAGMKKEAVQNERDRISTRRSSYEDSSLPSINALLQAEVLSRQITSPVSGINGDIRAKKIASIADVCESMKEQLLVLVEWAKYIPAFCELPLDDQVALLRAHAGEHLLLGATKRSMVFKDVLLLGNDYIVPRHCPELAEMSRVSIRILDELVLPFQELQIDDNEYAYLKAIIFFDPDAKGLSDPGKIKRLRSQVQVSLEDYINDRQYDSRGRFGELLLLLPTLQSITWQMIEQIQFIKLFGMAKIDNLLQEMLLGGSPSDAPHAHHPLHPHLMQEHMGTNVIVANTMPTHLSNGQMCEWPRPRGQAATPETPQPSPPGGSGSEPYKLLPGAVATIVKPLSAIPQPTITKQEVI

[5] = biological target: Nuclear receptor subfamily 2 group E member 1 (Homo sapiens) (UniProt Q9Y466); experiment: Selectivity interaction (Reporter gene assay) EUB0001158a NR2E1; set-up: recommended concentration 1 uM
Nuclear receptor subfamily 2 group E member 1 (Homo sapiens), sequence (Q9Y466 whole entry): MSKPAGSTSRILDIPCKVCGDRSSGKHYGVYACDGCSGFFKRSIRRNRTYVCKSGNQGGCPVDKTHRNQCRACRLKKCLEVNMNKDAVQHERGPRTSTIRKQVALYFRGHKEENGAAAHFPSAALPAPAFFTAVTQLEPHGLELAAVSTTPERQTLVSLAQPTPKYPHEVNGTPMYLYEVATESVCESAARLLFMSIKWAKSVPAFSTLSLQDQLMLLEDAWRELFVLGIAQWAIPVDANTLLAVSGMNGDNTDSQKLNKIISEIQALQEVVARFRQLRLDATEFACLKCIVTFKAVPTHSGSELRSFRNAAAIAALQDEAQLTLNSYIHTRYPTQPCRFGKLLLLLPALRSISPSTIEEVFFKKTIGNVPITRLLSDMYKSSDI

[6] = biological target: Nuclear receptor subfamily 4immunitygroup A member 1 (Homo sapiens) (UniProt P22736); experiment: Selectivity interaction (Reporter gene assay) EUB0001158a NR4A1; set-up: recommended concentration 1 uM
Nuclear receptor subfamily 4immunitygroup A member 1 (Homo sapiens), sequence (P22736 whole entry): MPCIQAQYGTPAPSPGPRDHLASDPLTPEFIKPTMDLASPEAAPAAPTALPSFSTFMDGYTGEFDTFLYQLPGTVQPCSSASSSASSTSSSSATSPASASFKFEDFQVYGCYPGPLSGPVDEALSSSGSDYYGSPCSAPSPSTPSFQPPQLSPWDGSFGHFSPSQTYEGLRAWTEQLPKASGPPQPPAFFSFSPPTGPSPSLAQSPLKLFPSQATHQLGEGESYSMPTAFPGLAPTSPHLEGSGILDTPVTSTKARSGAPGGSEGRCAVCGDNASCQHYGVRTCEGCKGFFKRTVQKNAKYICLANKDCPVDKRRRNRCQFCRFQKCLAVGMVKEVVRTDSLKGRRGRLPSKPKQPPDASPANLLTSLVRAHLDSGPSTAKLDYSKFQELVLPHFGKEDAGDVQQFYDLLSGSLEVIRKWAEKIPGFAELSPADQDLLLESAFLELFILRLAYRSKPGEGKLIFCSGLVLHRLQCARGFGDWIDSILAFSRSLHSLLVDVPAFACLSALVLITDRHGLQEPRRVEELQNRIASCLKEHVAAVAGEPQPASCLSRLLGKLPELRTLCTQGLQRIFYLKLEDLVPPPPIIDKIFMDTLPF

[7] = biological target: T4, Retinoic acid receptor RXR-alpha (Homo sapiens) (UniProt P19793); experiment: Selectivity interaction (Reporter gene assay) EUB0001158a RXRA; set-up: recommended concentration 1 uM; details: reference bexarotene 1 uM, Selectivity number of off-targets 0.0, Selectivity number of targets 1.0, Source Knowledge inhouse
T4 sequence (whole entry): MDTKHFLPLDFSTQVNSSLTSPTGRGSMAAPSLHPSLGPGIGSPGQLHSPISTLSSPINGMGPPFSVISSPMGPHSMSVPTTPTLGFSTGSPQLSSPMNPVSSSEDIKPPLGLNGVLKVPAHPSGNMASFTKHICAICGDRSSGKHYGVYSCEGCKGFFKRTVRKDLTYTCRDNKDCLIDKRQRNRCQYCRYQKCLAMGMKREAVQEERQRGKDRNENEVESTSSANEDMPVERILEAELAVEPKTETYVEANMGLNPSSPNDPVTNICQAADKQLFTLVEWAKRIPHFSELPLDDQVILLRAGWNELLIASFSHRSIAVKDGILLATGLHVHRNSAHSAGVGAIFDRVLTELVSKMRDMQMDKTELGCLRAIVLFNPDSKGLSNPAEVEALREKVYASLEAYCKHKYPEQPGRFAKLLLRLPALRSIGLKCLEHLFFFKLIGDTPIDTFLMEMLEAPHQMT

[8] = biological target: T4, Retinoic acid receptor RXR-alpha (Homo sapiens); experiment: Selectivity interaction (Reporter gene assay) EUB0001160a RXRA; set-up: recommended concentration 1 uM
[9] = biological target: Steroidogenic factor 1 (Homo sapiens) (UniProt Q13285); experiment: Selectivity interaction (Reporter gene assay) EUB0001160a NR5A1; set-up: recommended concentration 1 uM
[10] = biological target: Nuclear receptor subfamily 2 group E member 1 (Homo sapiens) (UniProt Q9Y466); experiment: Selectivity interaction (Reporter gene assay) EUB0001160a NR2E1; set-up: recommended concentration 1 uM
[11] = biological target: T3, Hepatocyte nuclear factor 4-alpha (Homo sapiens); experiment: Selectivity interaction (Reporter gene assay) EUB0001160a HNF4A; set-up: recommended concentration 1 uM
[12] = biological target: T2, Nuclear receptor subfamily 2 group C member 1 (Homo sapiens); experiment: Selectivity interaction (Reporter gene assay) EUB0001160a NR2C1; set-up: recommended concentration 1 uM
[13] = biological target: T1, Alpha trans-inducing protein (Human alphaherpesvirus 1); experiment: Selectivity interaction (Reporter gene assay) EUB0001160a UL48; set-up: recommended concentration 1 uM
[14] = biological target: Nuclear receptor subfamily 4immunitygroup A member 1 (Homo sapiens) (UniProt P22736); experiment: Selectivity interaction (Reporter gene assay) EUB0001160a NR4A1; set-up: recommended concentration 1 uM
[15] = biological target: T4, Retinoic acid receptor RXR-alpha (Homo sapiens); experiment: Selectivity interaction (Reporter gene assay) EUB0001156a RXRA; set-up: recommended concentration 1 uM; details: reference bexarotene 1 uM, Selectivity number of off-targets 0.0, Selectivity number of targets 1.0, Source Knowledge inhouse
[16] = biological target: Nuclear receptor subfamily 2 group E member 1 (Homo sapiens) (UniProt Q9Y466); experiment: Selectivity interaction (Reporter gene assay) EUB0001156a NR2E1; set-up: recommended concentration 1 uM
[17] = biological target: T1, Alpha trans-inducing protein (Human alphaherpesvirus 1); experiment: Selectivity interaction (Reporter gene assay) EUB0001156a UL48; set-up: recommended concentration 1 uM; details: screened at recom. conc., Selectivity number of off-targets 0.0, Selectivity number of targets 1.0, Source Knowledge inhouse
[18] = biological target: Nuclear receptor subfamily 4immunitygroup A member 1 (Homo sapiens) (UniProt P22736); experiment: Selectivity interaction (Reporter gene assay) EUB0001156a NR4A1; set-up: recommended concentration 1 uM
[19] = biological target: Steroidogenic factor 1 (Homo sapiens) (UniProt Q13285); experiment: Selectivity interaction (Reporter gene assay) EUB0001156a NR5A1; set-up: recommended concentration 1 uM
[20] = biological target: T2, Nuclear receptor subfamily 2 group C member 1 (Homo sapiens); experiment: Selectivity interaction (Reporter gene assay) EUB0001156a NR2C1; set-up: recommended concentration 1 uM
[21] = biological target: T3, Hepatocyte nuclear factor 4-alpha (Homo sapiens); experiment: Selectivity interaction (Reporter gene assay) EUB0001156a HNF4A; set-up: recommended concentration 1 uM
[22] = biological target: T2, Nuclear receptor subfamily 2 group C member 1 (Homo sapiens); experiment: Selectivity interaction (Reporter gene assay) EUB0001152a NR2C1; set-up: recommended concentration 10 uM; details: screened at recom. conc., Selectivity number of off-targets 1.0, Selectivity number of targets 5.0, Source Knowledge inhouse
[23] = biological target: T4, Retinoic acid receptor RXR-alpha (Homo sapiens); experiment: Selectivity interaction (Reporter gene assay) EUB0001152a RXRA; set-up: recommended concentration 10 uM
[24] = biological target: Nuclear receptor subfamily 2 group E member 1 (Homo sapiens) (UniProt Q9Y466); experiment: Selectivity interaction (Reporter gene assay) EUB0001152a NR2E1; set-up: recommended concentration 10 uM
[25] = biological target: T1, Alpha trans-inducing protein (Human alphaherpesvirus 1); experiment: Selectivity interaction (Reporter gene assay) EUB0001152a UL48; set-up: recommended concentration 10 uM
[26] = biological target: Steroidogenic factor 1 (Homo sapiens) (UniProt Q13285); experiment: Selectivity interaction (Reporter gene assay) EUB0001152a NR5A1; set-up: recommended concentration 10 uM
[27] = biological target: T3, Hepatocyte nuclear factor 4-alpha (Homo sapiens); experiment: Selectivity interaction (Reporter gene assay) EUB0001152a HNF4A; set-up: recommended concentration 10 uM
[28] = biological target: Nuclear receptor subfamily 4immunitygroup A member 1 (Homo sapiens) (UniProt P22736); experiment: Selectivity interaction (Reporter gene assay) EUB0001152a NR4A1; set-up: recommended concentration 10 uM
[29] = biological target: T1, Alpha trans-inducing protein (Human alphaherpesvirus 1); experiment: Selectivity interaction (Reporter gene assay) EUB0001151a UL48; set-up: recommended concentration 1 uM
[30] = biological target: T5, Peroxisome proliferator-activated receptor gamma (Homo sapiens) (UniProt P37231); experiment: Selectivity interaction (Reporter gene assay) EUB0001151a PPARG; set-up: recommended concentration 1 uM; details: screened at recom. conc., Selectivity number of off-targets 1.0, Selectivity number of targets 19.0, Source Knowledge inhouse
T5 sequence (whole entry): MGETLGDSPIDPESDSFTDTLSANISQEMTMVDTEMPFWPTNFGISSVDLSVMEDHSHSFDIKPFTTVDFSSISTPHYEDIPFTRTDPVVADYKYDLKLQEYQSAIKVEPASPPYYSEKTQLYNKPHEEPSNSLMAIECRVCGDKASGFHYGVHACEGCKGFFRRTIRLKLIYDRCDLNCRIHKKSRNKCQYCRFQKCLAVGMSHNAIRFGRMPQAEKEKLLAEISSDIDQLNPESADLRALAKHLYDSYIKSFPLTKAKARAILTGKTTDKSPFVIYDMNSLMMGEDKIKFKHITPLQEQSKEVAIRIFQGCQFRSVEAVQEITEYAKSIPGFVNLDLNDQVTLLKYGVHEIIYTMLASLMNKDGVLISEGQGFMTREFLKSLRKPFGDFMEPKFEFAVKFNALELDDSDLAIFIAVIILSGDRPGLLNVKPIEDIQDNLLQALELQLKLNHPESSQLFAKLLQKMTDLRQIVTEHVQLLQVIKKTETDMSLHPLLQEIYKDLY

[31] = biological target: T2, Nuclear receptor subfamily 2 group C member 1 (Homo sapiens); experiment: Selectivity interaction (Reporter gene assay) EUB0001151a NR2C1; set-up: recommended concentration 1 uM
[32] = biological target: T3, Hepatocyte nuclear factor 4-alpha (Homo sapiens); experiment: Selectivity interaction (Reporter gene assay) EUB0001151a HNF4A; set-up: recommended concentration 1 uM
[33] = biological target: Nuclear receptor subfamily 4immunitygroup A member 1 (Homo sapiens) (UniProt P22736); experiment: Selectivity interaction (Reporter gene assay) EUB0001151a NR4A1; set-up: recommended concentration 1 uM
[34] = biological target: Nuclear receptor subfamily 2 group E member 1 (Homo sapiens) (UniProt Q9Y466); experiment: Selectivity interaction (Reporter gene assay) EUB0001151a NR2E1; set-up: recommended concentration 1 uM
[35] = biological target: T4, Retinoic acid receptor RXR-alpha (Homo sapiens); experiment: Selectivity interaction (Reporter gene assay) EUB0001151a RXRA; set-up: recommended concentration 1 uM; details: reference bexarotene 1 uM, Selectivity number of off-targets 0.0, Selectivity number of targets 1.0, Source Knowledge inhouse
[36] = biological target: Steroidogenic factor 1 (Homo sapiens) (UniProt Q13285); experiment: Selectivity interaction (Reporter gene assay) EUB0001151a NR5A1; set-up: recommended concentration 1 uM

Steroidogenic factor 1 (Homo sapiens), sequence (Q13285 whole entry): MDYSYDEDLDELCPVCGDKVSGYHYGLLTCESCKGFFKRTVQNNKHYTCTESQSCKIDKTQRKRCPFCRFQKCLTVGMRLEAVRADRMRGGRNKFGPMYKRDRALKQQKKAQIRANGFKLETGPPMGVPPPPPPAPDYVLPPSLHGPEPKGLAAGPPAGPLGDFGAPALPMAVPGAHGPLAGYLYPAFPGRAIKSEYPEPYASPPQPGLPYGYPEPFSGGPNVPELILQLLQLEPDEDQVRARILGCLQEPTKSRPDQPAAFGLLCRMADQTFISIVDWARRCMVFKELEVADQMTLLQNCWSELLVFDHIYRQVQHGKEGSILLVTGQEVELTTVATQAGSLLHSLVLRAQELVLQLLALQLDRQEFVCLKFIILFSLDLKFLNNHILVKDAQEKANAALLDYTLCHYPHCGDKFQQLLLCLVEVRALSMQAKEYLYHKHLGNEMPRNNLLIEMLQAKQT

CC(=O)Nc1nc(C)c(S(=O)(=O)Nc2ccc(C(O)(C(F)(F)F)C(F)(F)F)cc2)s1
Remaining activity [1]: 0.814 | P-value [2]: 3.31e-05 | Remaining activity [3]: 0.684 | Remaining activity [4]: 0.71 | Remaining activity [5]: 0.58 | Remaining activity [6]: 0.661 | Relative activation [7]: 0.191%

OC(c1ccc(-c2ccc(CN3CCN(Cc4ccncc4)CC3)cc2)c(F)c1)(C(F)(F)F)C(F)(F)F
Relative activation [8]: 1.19% | Remaining activity [9]: 0.561 | Fold activation [10]: 1.21 | Remaining activity [11]: 0.878 | Fold activation [12]: 1.26 | P-value [13]: 0.00194 | Remaining activity [14]: 0.922

O=C(Nc1ccc(C(O)(C(F)(F)F)C(F)(F)F)cc1)c1ccc(C(F)(F)F)cc1
Relative activation [15]: 0.302% | Remaining activity [16]: 0.903 | P-value [17]: 0.167 | Remaining activity [18]: 0.858 | Fold activation [19]: 1.1 | Fold activation [20]: 1.1 | Fold activation [21]: 1.11

CCOC(=O)N1CCC(CN(Cc2ccc(Cl)cc2)Cc2ccc([N+](=O)[O-])s2)C1 (stereo unspecified)
Remaining activity [22]: 0.46 | Relative activation [23]: 0.237% | Remaining activity [24]: 0.62 | P-value [25]: 0.0179 | Remaining activity [26]: 0.905 | Remaining activity [27]: 0.579 | Fold activation [28]: 1.3

O=C(NCCS(=O)(=O)c1ccc(C(F)(F)F)cn1)c1ccc(Cl)cc1
P-value [29]: 0.0023 | Remaining activity [30]: 0.832 | Fold activation [31]: 1.39 | Fold activation [32]: 1.25 | Fold activation [33]: 1.27 | Fold activation [34]: 1.11 | Relative activation [35]: 0.596% | Remaining activity [36]: 0.9
